Patent US10882859B2, “Kinase inhibitors” (Topivert Pharma Limited, priority 2015, dated 2021)
In brackets after ≈: the same amount, converted by molar mass. Read-outs that look alike come from different tables or passages of the source.

Legend:
[1] = system: CD3/IL2 stimulated PBMC cells; assay: IFNγ release from CD3/IL2 stimulated PBMC cells; assay type: cell-based; details: Homo sapiens, CD3/IL2 stimulation, 48 h, ELISA
Protocol: PBMCs from healthy subjects are separated from whole blood using a density gradient (Lymphoprep, Axis-Shield Healthcare). Cells are added to a 96 well plate, and compound at the desired concentration added 2 hours prior to stimulation with a mixture of monoclonal antibody to CD3 (1 μg/ml, eBioscience) and human recombinant IL2 (10 ng/ml, Peprotech). After 48 hours incubation under normal tissue culture conditions, supernatants are collected and IFNγ release determined by Sandwich ELISA (Duo-set, R&D System). The IC50 is determined from the dose response curve.

[2] = Solubility in fasted-state simulated colonic fluid (FaSSCoF); assay type: physicochemical; details: 25 °C, pH 6.5, fassgf or other biorelevant, thermodynamic from solid, pH 6.5, 25° C.
Protocol: The solubilities of compounds of the invention in FaSSCoF at pH 6.5 are determined using a modification of a previously-reported procedure (Vertzoni, M., et al. Pharm. Res. 2010, 27, 2187-2196). In place of the bile salt extract employed in the original procedure (which extract is no longer available), the modified procedure uses a mixture of sodium taurochlorate (0.15 g), glycocholic acid (0.15 g), ursodeoxycholic acid (0.05 g), cholic acid (0.05 g), and glycodeoxycholic acid (0.05 g). These five bile acids are ground together with a mortar and pestle to produce a fine white powder that is incorporated into the FaSSCoF, as outlined below.
FaSSCoF medium: Tris(hydroxymethyl)aminomethane (Tris; 0.275 g) and maleic acid (0.44 g) are dissolved in water (35 mL) to give a solution whose pH is adjusted to 6.5 by treatment with 0.5M NaOH (ca. 12 mL). The solution is then made up to 50 mL with water. A portion of this Tris/maleate buffer solution (ca. 25 mL) is added to a 0.5 L round-bottomed flask, before being treated with 0.00565 g of the bile acid mixture described above. Solutions of phosphatidylcholine (0.0111 g) in DCM (0.15 mL) and palmitic acid (0.0013 g) in DCM (0.15 mL) are added, then the organic solvent is evaporated off under reduced pressure at 40° C. until a clear solution, with no perceptible DCM odour, is achieved. The volume of the evaporated solution is adjusted to 50 mL by addition of the remainder of Tris/maleate buffer, then BSA (0.115 g) is added, before being dissolved by gentle agitation.
Solubility Determination: Test compounds are suspended in the pH 6.5 FaSSCoF medium to give a maximum final concentration of 2-10 mg/mL. The suspensions are equilibrated at 25° C. for 24 h, before being filtered through a glass fibre C filter. The filtrates are then diluted as appropriate for injection and quantification by HPLC with reference to a standard. Different volumes of the standard, diluted and undiluted sample solutions are injected and the solubilities are calculated using the peak areas determined by integration of the peak found at the same retention time as the principal peak in the standard injection.

[3] = target: JAK3 (Homo sapiens (Human), UniProt P52333); assay: KINOMEscan enzyme binding assay (DiscoveRx), JAK3; details: read-out: Dissociation Constant JAK3
Chain of JAK3 (P52333 whole entry): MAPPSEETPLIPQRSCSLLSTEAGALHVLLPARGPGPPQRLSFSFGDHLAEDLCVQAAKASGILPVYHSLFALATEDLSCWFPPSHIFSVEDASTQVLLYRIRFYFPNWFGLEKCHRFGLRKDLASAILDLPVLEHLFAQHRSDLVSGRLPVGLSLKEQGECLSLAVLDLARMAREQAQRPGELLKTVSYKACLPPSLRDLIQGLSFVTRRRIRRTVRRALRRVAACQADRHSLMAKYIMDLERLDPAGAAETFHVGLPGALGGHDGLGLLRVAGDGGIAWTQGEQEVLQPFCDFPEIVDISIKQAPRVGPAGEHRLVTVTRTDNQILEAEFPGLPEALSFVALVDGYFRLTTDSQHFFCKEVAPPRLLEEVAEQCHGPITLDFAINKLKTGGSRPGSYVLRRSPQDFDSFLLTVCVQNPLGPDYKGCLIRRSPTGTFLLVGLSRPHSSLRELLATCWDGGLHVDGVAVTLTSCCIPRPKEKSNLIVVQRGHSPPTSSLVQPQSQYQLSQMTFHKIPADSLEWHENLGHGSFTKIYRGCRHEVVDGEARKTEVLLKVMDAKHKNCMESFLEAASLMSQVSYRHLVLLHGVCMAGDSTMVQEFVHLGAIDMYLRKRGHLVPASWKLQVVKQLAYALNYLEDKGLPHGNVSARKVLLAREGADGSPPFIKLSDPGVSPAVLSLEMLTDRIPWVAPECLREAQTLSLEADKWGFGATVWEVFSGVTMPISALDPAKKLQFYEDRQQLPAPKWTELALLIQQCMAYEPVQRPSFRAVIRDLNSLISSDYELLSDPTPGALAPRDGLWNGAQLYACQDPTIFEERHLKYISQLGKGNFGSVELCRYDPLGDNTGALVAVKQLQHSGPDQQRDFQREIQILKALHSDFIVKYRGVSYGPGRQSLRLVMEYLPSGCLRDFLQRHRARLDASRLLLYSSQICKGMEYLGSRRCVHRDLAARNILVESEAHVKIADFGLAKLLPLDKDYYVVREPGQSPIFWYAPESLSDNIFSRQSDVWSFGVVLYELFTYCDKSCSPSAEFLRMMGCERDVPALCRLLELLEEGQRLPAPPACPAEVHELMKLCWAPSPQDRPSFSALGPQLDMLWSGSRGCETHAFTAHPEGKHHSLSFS
Protocol: (§1) These assays may be conducted by DiscoveRx (formerly Ambit; San Diego, Calif.). The percentage inhibition produced by incubation with a test compound may be calculated relative to the non-inhibited control.

[4] = target: JAK1 (Homo sapiens (Human), UniProt P23458); assay: KINOMEscan enzyme binding assay (DiscoveRx), JAK1; details: read-out: Dissociation Constant JAK1
Chain of JAK1 (P23458 whole entry): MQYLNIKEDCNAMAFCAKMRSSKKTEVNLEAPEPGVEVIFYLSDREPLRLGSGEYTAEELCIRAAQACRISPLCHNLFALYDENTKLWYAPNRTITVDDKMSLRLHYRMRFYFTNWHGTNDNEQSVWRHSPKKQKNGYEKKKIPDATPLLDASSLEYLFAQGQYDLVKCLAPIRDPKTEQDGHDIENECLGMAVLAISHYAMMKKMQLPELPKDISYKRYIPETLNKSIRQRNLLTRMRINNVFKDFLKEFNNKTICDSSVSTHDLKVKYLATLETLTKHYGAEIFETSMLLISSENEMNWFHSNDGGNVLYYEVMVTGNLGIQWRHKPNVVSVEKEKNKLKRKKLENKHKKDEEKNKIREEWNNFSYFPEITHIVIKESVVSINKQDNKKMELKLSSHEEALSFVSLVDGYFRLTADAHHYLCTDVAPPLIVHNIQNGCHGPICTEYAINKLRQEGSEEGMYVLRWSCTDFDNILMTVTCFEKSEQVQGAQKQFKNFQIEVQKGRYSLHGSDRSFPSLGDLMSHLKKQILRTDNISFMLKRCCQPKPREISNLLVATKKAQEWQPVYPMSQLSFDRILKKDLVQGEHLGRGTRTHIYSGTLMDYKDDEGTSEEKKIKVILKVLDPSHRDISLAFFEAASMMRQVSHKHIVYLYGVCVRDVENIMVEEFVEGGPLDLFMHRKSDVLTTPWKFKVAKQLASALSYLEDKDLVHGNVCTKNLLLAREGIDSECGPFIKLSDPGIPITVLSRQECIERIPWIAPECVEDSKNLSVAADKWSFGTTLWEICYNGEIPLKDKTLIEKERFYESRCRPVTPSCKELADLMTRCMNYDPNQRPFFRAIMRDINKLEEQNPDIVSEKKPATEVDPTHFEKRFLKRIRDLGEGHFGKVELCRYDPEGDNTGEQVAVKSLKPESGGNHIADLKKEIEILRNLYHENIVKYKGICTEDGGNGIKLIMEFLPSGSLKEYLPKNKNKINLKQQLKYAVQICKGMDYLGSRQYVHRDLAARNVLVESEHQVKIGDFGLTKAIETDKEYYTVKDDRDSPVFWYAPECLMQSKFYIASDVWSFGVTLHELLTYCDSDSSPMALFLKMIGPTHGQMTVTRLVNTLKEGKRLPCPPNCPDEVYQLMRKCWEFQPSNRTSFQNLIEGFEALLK
Protocol: as §1

[5] = target: TYK2 (Homo sapiens (Human), UniProt P29597); assay: KINOMEscan enzyme binding assay (DiscoveRx), TYK2; details: read-out: Dissociation Constant TYK2
Chain of TYK2 (P29597 whole entry): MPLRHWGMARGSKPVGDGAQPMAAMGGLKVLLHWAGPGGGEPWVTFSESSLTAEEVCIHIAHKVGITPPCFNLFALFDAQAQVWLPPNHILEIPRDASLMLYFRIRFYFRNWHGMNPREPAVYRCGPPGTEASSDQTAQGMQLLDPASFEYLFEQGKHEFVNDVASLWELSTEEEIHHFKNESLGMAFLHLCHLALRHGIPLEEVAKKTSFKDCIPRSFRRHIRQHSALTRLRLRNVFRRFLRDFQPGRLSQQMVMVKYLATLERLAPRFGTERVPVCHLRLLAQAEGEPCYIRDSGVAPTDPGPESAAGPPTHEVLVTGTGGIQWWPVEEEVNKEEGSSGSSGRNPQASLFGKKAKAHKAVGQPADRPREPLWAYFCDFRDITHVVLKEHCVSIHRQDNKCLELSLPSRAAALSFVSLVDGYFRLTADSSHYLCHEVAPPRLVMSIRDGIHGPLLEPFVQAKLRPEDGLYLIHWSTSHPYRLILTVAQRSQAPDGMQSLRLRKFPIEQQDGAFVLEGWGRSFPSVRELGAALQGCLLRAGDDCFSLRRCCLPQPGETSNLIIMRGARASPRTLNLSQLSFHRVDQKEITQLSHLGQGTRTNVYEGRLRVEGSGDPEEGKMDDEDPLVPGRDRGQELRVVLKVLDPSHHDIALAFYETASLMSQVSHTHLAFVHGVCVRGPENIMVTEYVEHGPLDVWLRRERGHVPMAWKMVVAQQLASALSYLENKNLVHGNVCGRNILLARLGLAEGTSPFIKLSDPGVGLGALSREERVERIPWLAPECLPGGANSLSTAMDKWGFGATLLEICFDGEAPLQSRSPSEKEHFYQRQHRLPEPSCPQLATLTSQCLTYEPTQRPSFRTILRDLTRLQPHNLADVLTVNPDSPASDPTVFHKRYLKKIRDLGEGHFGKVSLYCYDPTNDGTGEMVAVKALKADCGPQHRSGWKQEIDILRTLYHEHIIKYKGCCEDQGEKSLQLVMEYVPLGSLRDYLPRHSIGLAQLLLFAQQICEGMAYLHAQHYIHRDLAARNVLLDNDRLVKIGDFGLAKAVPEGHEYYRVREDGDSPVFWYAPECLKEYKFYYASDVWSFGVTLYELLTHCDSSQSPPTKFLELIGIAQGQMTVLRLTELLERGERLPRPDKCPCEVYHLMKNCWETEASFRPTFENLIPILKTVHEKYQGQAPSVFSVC
Protocol: as §1

[6] = system: Jurkat cells; assay: Cell cytotoxicity assay (propidium iodide, flow cytometry); assay type: cell-based, human; details: 24 h
Protocol: 1×10^5 Jurkat cells (immortalised human T lymphocytes) are added to the appropriate number of wells of a 96 well plate in 100 μL of media (RPMI supplemented with 10% foetal bovine serum). 1 μL of DMSO control (final concentration 1.0% v/v) or test compound (final concentration 20, 5 or 1 μg/mL) is added to the wells and incubated at 37° C., 5% CO2. After 24 hours, the plate is centrifuged at 1200 rpm for 3 minutes and the supernatant discarded. Cells are then resuspended in 150 μL (final concentration 7.5 μg/mL) of propidium iodide (PI) in PBS and incubated at 37° C., 5% CO2 for 15 minutes. After 15 minutes, cells are analysed by flow cytometry (BD accuri) using the FL3 window. The % viability is calculated as the % of cells that are PI negative in the test wells normalised to the DMSO control.

[7] = target: JAK2 (Homo sapiens (Human), UniProt O60674); assay: KINOMEscan enzyme binding assay (DiscoveRx), JAK2; details: read-out: Dissociation Constant JAK2
Chain of JAK2 (O60674 whole entry): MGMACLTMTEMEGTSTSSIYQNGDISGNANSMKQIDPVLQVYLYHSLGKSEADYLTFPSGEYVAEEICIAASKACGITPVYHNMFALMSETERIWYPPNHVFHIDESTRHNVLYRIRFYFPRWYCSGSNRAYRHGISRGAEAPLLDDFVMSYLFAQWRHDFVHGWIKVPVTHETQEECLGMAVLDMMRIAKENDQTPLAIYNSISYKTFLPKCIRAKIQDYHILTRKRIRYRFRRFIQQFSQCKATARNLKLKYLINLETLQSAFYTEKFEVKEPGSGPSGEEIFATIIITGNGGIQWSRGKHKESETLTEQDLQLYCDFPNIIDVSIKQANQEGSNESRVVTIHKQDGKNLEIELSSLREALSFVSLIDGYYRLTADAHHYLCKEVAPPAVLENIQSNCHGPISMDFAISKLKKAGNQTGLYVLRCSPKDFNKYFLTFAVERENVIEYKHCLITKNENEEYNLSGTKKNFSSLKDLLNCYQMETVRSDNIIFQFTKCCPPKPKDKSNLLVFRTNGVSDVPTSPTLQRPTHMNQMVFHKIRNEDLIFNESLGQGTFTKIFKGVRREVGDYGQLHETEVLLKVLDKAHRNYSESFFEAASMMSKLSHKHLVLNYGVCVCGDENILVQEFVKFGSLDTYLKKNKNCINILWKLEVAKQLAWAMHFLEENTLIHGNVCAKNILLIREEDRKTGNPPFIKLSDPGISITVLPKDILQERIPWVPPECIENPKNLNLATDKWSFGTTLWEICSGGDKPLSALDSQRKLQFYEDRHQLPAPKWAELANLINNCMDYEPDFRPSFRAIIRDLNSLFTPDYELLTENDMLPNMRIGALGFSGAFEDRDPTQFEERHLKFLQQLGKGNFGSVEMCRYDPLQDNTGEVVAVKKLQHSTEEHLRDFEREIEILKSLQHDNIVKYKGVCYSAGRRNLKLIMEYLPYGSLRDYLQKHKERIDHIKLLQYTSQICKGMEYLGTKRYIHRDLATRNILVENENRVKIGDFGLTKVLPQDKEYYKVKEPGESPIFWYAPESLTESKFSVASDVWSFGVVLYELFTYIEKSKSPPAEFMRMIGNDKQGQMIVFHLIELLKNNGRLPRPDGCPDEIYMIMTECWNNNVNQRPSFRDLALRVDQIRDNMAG
Protocol: as §1

solubility thermodynamic at 24 h ([2]; Run 1, read-out: pH 6.5 FaSSCoF Solubility, Run 1): 30 µg/mL (≈ 52.5 µM)
solubility thermodynamic at 24 h ([2]; Run 2, read-out: pH 6.5 FaSSCoF Solubility, Run 2): 30 µg/mL (≈ 52.5 µM)
Kd [3]: 46 pM
Kd [4]: 600 pM
Kd [5]: 69 pM
Kd [7]: 34 pM
SMILES: CCc1cc(O)c(F)cc1-c1ccc2c(-c3nc4c([nH]3)CCN(C(=O)N3CCC(N5CCCCC5)CC3)C4)n[nH]c2c1 [Example 2(a), [1,4′-bipiperidin]-1′-yl(2-(6-(2-ethyl-5-fluoro-4-hydroxyphenyl)-1H-indazol-3-yl)-1,4,6,7-tetrahydro-5H-imidazo[4,5-c]pyridin-5-yl)methanone]
IC50 [1]: 48400 pM
% viability at 1 μg/mL [6]: 59%
